# Reference: patent publication US20260071239A1, “COMPOSITIONS AND METHODS FOR IMPROVED CELL CULTURE EFFICIENCY” (Amyris, Inc., priority 2022, published 2026)
# Tested on: host cells
# Test: Inhibition of host cells by myrcene during fermentation
# Assay type: cell-based
# Conditions: host cells in fermentation; read-out: IC50 (inhibitory to host cells)
structure (smiles),measurement,value
"C=CC(=C)CCC=C(C)C [Myrcene, myrcene]",IC50,50 to 100 µg/mL
